Patent publication US20240158446A1, “CYCLIC COMPOUND HAVING SELECTIVE INHIBITORY ACTION ON KRAS OVER HRAS AND NRAS” (CHUGAI SEIYAKU KABUSHIKI KAISHA, priority 2021, published 2024)

Assays:
[1] = molecular target: GDP-bound HRAS wild-type protein (Homo sapiens, UniProt P01112); experiment: Binding to HRAS by surface plasmon resonance (SPR), Single Cycle Kinetics; conditions: for HRAS/KRAS (ratio of KD value for HRAS to KD value for KRAS) / HRAS/KRAS (ratio of KD value with respect to HRAS to KD value with respect to KRAS): SPR, GDP-bound HRAS wild-type protein vs GDP-bound KRAS wild-type protein; for HRAS/KRAS (ratio of KD value with respect to GDP-bound HRAS wild-type protein to KD value with respect to KRAS): SPR KD ratio HRAS/KRAS, class symbols
[2] = molecular target: GDP-bound NRAS wild-type protein (Homo sapiens, UniProt P01111); experiment: Binding to NRAS by surface plasmon resonance (SPR), Single Cycle Kinetics; conditions: for NRAS/KRAS (ratio of KD value for NRAS to KD value for KRAS) / NRAS/KRAS (ratio of KD value with respect to NRAS to KD value with respect to KRAS): SPR, GDP-bound NRAS wild-type protein vs GDP-bound KRAS wild-type protein; for NRAS/KRAS (ratio of KD value with respect to GDP-bound NRAS wild-type protein to KD value with respect to KRAS): SPR KD ratio NRAS/KRAS, class symbols
Sequence of GDP-bound NRAS wild-type protein (P01111 whole entry): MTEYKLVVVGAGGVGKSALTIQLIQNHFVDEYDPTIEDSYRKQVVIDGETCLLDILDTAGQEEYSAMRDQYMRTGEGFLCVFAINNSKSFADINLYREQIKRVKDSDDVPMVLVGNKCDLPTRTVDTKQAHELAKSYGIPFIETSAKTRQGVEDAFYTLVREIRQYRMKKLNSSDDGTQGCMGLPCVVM

Sequence of GDP-bound HRAS wild-type protein (P01112 whole entry): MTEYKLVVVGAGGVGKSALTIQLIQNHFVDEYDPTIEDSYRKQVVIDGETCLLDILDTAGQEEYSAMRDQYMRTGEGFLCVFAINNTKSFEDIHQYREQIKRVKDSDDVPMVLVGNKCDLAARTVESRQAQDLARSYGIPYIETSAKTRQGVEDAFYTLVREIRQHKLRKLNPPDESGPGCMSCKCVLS

Row | SMILES | HRAS/KRAS (ratio of KD value for HRAS to KD value for KRAS) [1] | NRAS/KRAS (ratio of KD value for NRAS to KD value for KRAS) [2] | other results
1 | CCO[C@@H]1C[C@H]2C(=O)NC3(CCC3)C(=O)N(C)[C@@H](C3CCCC3)C(=O)N(C)[C@H](C(=O)N3CCOCC3)CC(=O)N(C)[C@@H](CC(C)C)C(=O)N[C@@H]([C@@H](C)CC)C(=O)N(C)CC(=O)N(C)[C@H]3CCCCCN(C3=O)[C@@H](Cc3ccc(F)cc3)C(=O)N(C)CC(=O)N[C@@H](CCc3ccc(C(F)(F)F)c(Cl)c3)C(=O)N2C1 [PP0968] | B (a compound having 3 or more and less than 10 is denoted as B) | B (a compound having 3 or more and less than 10 is denoted as B) | –
2 | CCO[C@@H]1C[C@H]2C(=O)NC3(CC(C)(C)C3)C(=O)N(C)[C@@H](C3CCCC3)C(=O)N(C)[C@H](C(=O)N(C)C)CC(=O)N(C)[C@@H](CC(C)C)C(=O)N[C@@H]([C@@H](C)CC)C(=O)N(C)CC(=O)N(C)[C@H]3C/C=C\CCN(C3=O)[C@@H](Cc3ccc4c(c3)CCC4(F)F)C(=O)N(C)CC(=O)N[C@@H](CCc3ccc(C(F)(F)F)c(OC)c3)C(=O)N2C1 [PP2695] | – | – | HRAS/KRAS (ratio of KD value with respect to GDP-bound HRAS wild-type protein to KD value with respect to KRAS) [1]: B (a compound having 3 or more and less than 10 is denoted as B); NRAS/KRAS (ratio of KD value with respect to GDP-bound NRAS wild-type protein to KD value with respect to KRAS) [2]: A (a compound having 10 or more and less than 20 is denoted as A)
3 | CCO[C@@H]1C[C@H]2C(=O)NC3(CC(C)(C)C3)C(=O)N(C)[C@@H](CC(C)(C)C)C(=O)N(C)[C@H](C(=O)N(C)C)CC(=O)N(C)[C@@H](COC)C(=O)N[C@@H]([C@@H](C)CC)C(=O)N(C3CC3)CC(=O)N(C)[C@H]3C/C=C\CCN(C3=O)[C@@H](Cc3ccc(C(F)(F)F)cc3)C(=O)N(C)CC(=O)N[C@@H](CCc3ccc(Cl)c(Cl)c3)C(=O)N2C1 [PP2750] | – | – | HRAS/KRAS (ratio of KD value with respect to GDP-bound HRAS wild-type protein to KD value with respect to KRAS) [1]: A (a compound having 10 or more and less than 20 is denoted as A); NRAS/KRAS (ratio of KD value with respect to GDP-bound NRAS wild-type protein to KD value with respect to KRAS) [2]: AA (a compound having 20 or more is denoted as AA)
4 | CCC[C@H]1C(=O)N[C@@H]([C@@H](C)CC)C(=O)N(C)CC(=O)N(C)[C@H]2C/C=C\CCN(C2=O)[C@@H](Cc2ccc(C)cc2)C(=O)N(C)CC(=O)N[C@@H](CCc2ccc(C(F)(F)F)c(OC)c2)C(=O)N2CC3(CC3)C[C@H]2C(=O)NC2(CC(C)(C)C2)C(=O)N(C)[C@@H](CC(C)(C)C)C(=O)N(C)[C@H](C(=O)N(C)C)CC(=O)N1C [PP3009] | A (a compound having 10 or more and less than 20 is denoted as A) | A (a compound having 10 or more and less than 20 is denoted as A) | –
5 | CCCCO[C@@H]1C[C@H]2C(=O)NC3(CCC3)C(=O)N(C)[C@@H](C3CCCC3)C(=O)N(C)[C@H](C(=O)N3CCOCC3)CC(=O)N(C)[C@@H](CC(C)C)C(=O)N[C@@H]([C@@H](C)CC)C(=O)N(C)CC(=O)N(C)[C@H]3CCCCN(C3=O)[C@@H](Cc3ccc(C(F)(F)F)cc3)C(=O)N(C)CC(=O)N[C@@H](CCc3cc(F)c(C(F)(F)F)c(F)c3)C(=O)N2C1 [PP1013] | C (A compound having a KD ratio of 0.1 or more and less than 3 is denoted as C) | C (A compound having a KD ratio of 0.1 or more and less than 3 is denoted as C) | –
6 | CCO[C@@H]1C[C@H]2C(=O)NC3(CC(C)(C)C3)C(=O)N(C)[C@@H](C(CC)CC)C(=O)N(C)[C@H](C(=O)N(C)C)CC(=O)N(C)[C@@H](CC(C)C)C(=O)N[C@@H]([C@@H](C)CC)C(=O)N(C)CC(=O)N(C)[C@H]3C/C=C\CCN(C3=O)[C@@H](Cc3ccc(C)cc3)C(=O)N(C)CC(=O)N[C@@H](CCc3ccc(C(F)(F)F)c(Cl)c3)C(=O)N2C1 [PP2148] | A (a compound having 10 or more and less than 20 is denoted as A) | A (a compound having 10 or more and less than 20 is denoted as A) | –
7 | CCO[C@@H]1C[C@H]2C(=O)NC3(CCC3)C(=O)N(C)[C@@H](C3CCCC3)C(=O)N(C)[C@H](C(=O)N3CCOCC3)CC(=O)N(C)[C@@H](CC(C)C)C(=O)N[C@@H]([C@@H](C)CC)C(=O)N(C)CC(=O)N(C)[C@H]3CC=C(C)CN(C3=O)[C@@H](Cc3ccc(C(F)(F)F)cc3)C(=O)N(C)CC(=O)N[C@@H](CCc3cc(F)c(C(F)(F)F)c(F)c3)C(=O)N2C1 [PP0826] | B (a compound having 3 or more and less than 10 is denoted as B) | C (A compound having a KD ratio of 0.1 or more and less than 3 is denoted as C) | –
8 | CCO[C@@H]1C[C@H]2C(=O)NC3(CCC3)C(=O)N(C)[C@@H](C3CCCC3)C(=O)N(C)[C@H](C(=O)N(C)C)CC(=O)N(C)[C@@H](CC(C)C)C(=O)N[C@@H]([C@@H](C)CC)C(=O)N(C)CC(=O)N(C)[C@H]3CCCCCN(C3=O)[C@@H](Cc3ccc(C(F)(F)F)cc3)C(=O)N(C)CC(=O)N[C@@H](CCc3cc(F)c(C(F)(F)F)c(F)c3)C(=O)N2C1 [PP0469] | – | – | HRAS/KRAS (ratio of KD value with respect to HRAS to KD value with respect to KRAS) [1]: B (a compound having 3 or more and less than 10 is denoted as B); NRAS/KRAS (ratio of KD value with respect to NRAS to KD value with respect to KRAS) [2]: B (a compound having 3 or more and less than 10 is denoted as B)
9 | CC[C@H](C)[C@@H]1NC(=O)[C@H](C2CCC2)N(C)C(=O)C[C@@H](C(=O)N(C)CC)N(C)C(=O)[C@H](C2CCCC2)N(C)C(=O)C2(CCC2)NC(=O)[C@@H]2C[C@H](C)CN2C(=O)[C@H](CCc2cc(F)c(C(F)(F)F)c(F)c2)NC(=O)CN(C)C(=O)[C@H](Cc2ccc(C(F)(F)F)cc2)N2CC/C=C\C[C@@H](C2=O)N(C)C(=O)CN(C)C1=O [PP2082] | A (a compound having 10 or more and less than 20 is denoted as A) | AA (a compound having 20 or more is denoted as AA) | –
10 | CC[C@@H]1C[C@H]2C(=O)NC3(CCCC3)C(=O)N(C)[C@@H](C3CCCC3)C(=O)N(C)[C@H](C(=O)N(C)C)CC(=O)N(C)[C@@H](CC(C)C)C(=O)N[C@@H]([C@@H](C)CC)C(=O)N(C)CC(=O)N(C)[C@H]3C/C=C\CCN(C3=O)[C@@H](Cc3ccc(C)cc3)C(=O)N(C)CC(=O)N[C@@H](CCc3cc(F)c(C(F)(F)F)c(F)c3)C(=O)N2C1 [PP2191] | B (a compound having 3 or more and less than 10 is denoted as B) | A (a compound having 10 or more and less than 20 is denoted as A) | –
11 | CCC(CC)[C@H]1C(=O)N(C)[C@H](C(=O)N(C)C)CC(=O)N(C)[C@@H](COC)C(=O)N[C@@H]([C@@H](C)CC)C(=O)N(C)CC(=O)N(C)[C@H]2C/C=C\CCN(C2=O)[C@@H](Cc2ccc(C)cc2)C(=O)N(C)CC(=O)N[C@@H](CCc2ccc(Cl)c(Cl)c2)C(=O)N2C[C@H](OC(C)C)C[C@H]2C(=O)N(C)C2(CC(C)(C)C2)C(=O)N1C [PP2814] | – | – | HRAS/KRAS (ratio of KD value with respect to GDP-bound HRAS wild-type protein to KD value with respect to KRAS) [1]: A (a compound having 10 or more and less than 20 is denoted as A); NRAS/KRAS (ratio of KD value with respect to GDP-bound NRAS wild-type protein to KD value with respect to KRAS) [2]: AA (a compound having 20 or more is denoted as AA)
12 | CCO[C@@H]1C[C@H]2C(=O)NC3(CCC3)C(=O)N(C)[C@@H](C3CCCC3)C(=O)N(CCc3ccccc3)[C@H](C(=O)N3CCOCC3)CC(=O)N(C)[C@@H](CC(C)C)C(=O)N[C@@H]([C@@H](C)CC)C(=O)N(C)CC(=O)N(C)[C@H]3CCCCCN(C3=O)[C@@H](Cc3ccc(C(F)(F)F)cc3)C(=O)N(C)CC(=O)N[C@@H](CCc3cc(F)c(C(F)(F)F)c(F)c3)C(=O)N2C1 [PP0642] | – | – | HRAS/KRAS (ratio of KD value with respect to HRAS to KD value with respect to KRAS) [1]: B (a compound having 3 or more and less than 10 is denoted as B); NRAS/KRAS (ratio of KD value with respect to NRAS to KD value with respect to KRAS) [2]: B (a compound having 3 or more and less than 10 is denoted as B)
13 | CCO[C@@H]1C[C@H]2C(=O)NC3(CC(C)(C)C3)C(=O)N(C)[C@@H](C(CC)CC)C(=O)N(C)[C@H](C(=O)N(C)C)CC(=O)N(C)[C@@H](CC3CC3)C(=O)N[C@@H]([C@@H](C)CC)C(=O)N(C)CC(=O)N(C)[C@H]3C/C=C\CCN(C3=O)[C@@H](Cc3ccc(C)cc3)C(=O)N(C)CC(=O)N[C@@H](CCc3ccc(Cl)c(Cl)c3)C(=O)N2C1 [PP2182] | A (a compound having 10 or more and less than 20 is denoted as A) | AA (a compound having 20 or more is denoted as AA) | –
14 | CCO[C@@H]1C[C@H]2C(=O)NC3(CCC3)C(=O)N(C)[C@@H](C3CCCC3)C(=O)N(C)[C@H](C(=O)N3CCOCC3)CC(=O)N(C)[C@@H](CC3CCC3)C(=O)N[C@@H]([C@@H](C)CC)C(=O)N(C)CC(=O)N(C)[C@H]3CCCCCN(C3=O)[C@@H](Cc3ccc(C(F)(F)F)cc3)C(=O)N(C)CC(=O)N[C@@H](CCc3cc(F)c(C(F)(F)F)c(F)c3)C(=O)N2C1 [PP0683] | – | – | HRAS/KRAS (ratio of KD value with respect to HRAS to KD value with respect to KRAS) [1]: B (a compound having 3 or more and less than 10 is denoted as B); NRAS/KRAS (ratio of KD value with respect to NRAS to KD value with respect to KRAS) [2]: B (a compound having 3 or more and less than 10 is denoted as B)
15 | CCO[C@@H]1C[C@H]2C(=O)NC3(CCC3)C(=O)N(C)[C@@H](C(CC)CC)C(=O)N(C)[C@H](C(=O)N(C)C)CC(=O)N(C)[C@H]3CCCC/C=C/c4ccc(cc4)C[C@@H](C(=O)N(C)CC(=O)N[C@@H](CCc4ccc(Cl)c(Cl)c4)C(=O)N2C1)N1CC/C=C\C[C@@H](C1=O)N(C)C(=O)CN(C1CC1)C(=O)[C@H]([C@@H](C)CC)NC3=O [PP2605] | – | – | HRAS/KRAS (ratio of KD value with respect to GDP-bound HRAS wild-type protein to KD value with respect to KRAS) [1]: A (a compound having 10 or more and less than 20 is denoted as A); NRAS/KRAS (ratio of KD value with respect to GDP-bound NRAS wild-type protein to KD value with respect to KRAS) [2]: AA (a compound having 20 or more is denoted as AA)
16 | CCC[C@H]1C(=O)N[C@@H]([C@@H](C)CC)C(=O)N(C)CC(=O)N(C)[C@H]2C/C=C\CCN(C2=O)[C@@H](Cc2ccc(C(F)(F)F)cc2)C(=O)N(C)CC(=O)N[C@@H](CCc2ccc(Cl)c(Cl)c2)C(=O)N2C[C@H](OCC)C[C@H]2C(=O)NC2(CC(C)(C)C2)C(=O)N(C)[C@@H](C(CC)CC)C(=O)N(C)[C@H](C(=O)N(C)C)CC(=O)N1C [PP2175] | A (a compound having 10 or more and less than 20 is denoted as A) | AA (a compound having 20 or more is denoted as AA) | –
